According to ChEMBL document CHEMBL1139796, “Novel anti-tuberculosis agents from MCR libraries” (Bioorg Med Chem Lett, 2007):
≈ marks a conversion by molar mass, not a printed value.

Experiments:
[1] = Selectivity index, IC50 for Vero cells to MIC for Mycobacterium tuberculosis H37Rv; assay type: functional
[2] = system: Mycobacterium tuberculosis; assay: Antimycobacterial activity against Mycobacterium tuberculosis H37Rv by broth microdilution alamar blue assay; assay type: functional
Vero = assay: Cytotoxicity against Vero cells; assay type: cell-based; conditions: Chlorocebus sabaeus
[3] = system: Mycobacterium tuberculosis; assay: Antimycobacterial activity against Mycobacterium tuberculosis at 12.5 ug/ml; assay type: functional; conditions: read-out: GI
[4] = system: Mycobacterium tuberculosis; assay: Reduction of Mycobacterium tuberculosis H37Rv growth in mouse peritoneal macrophage monolayers after 7 days; assay type: functional; conditions: 168 h

Row | Compound | inhibition of growth at 12.5 µg/mL [3] [%] | further results
1 | CCCCC(C(=O)NCc1ccccc1)N(C(=O)c1cnccn1)C1CCCCC1 (configuration not stated) | – | Selectivity index [1]: 9.9; MIC [2]: 3.13 µg/mL (≈ 7.66 µM); IC50 (Vero): 27.9 µg/mL (≈ 68.3 µM)
2 | C=CCNC(=O)C1(N(C(=O)c2cccnc2)C(C)c2ccccc2)CCCCC1 (configuration not stated) | 74 | –
3 | C=CCNC(=O)C(C)(c1ccccc1)N(C(=O)c1cccnc1)C1CCCCC1 (configuration not stated) | 57 | –
4 | CC(C)CCN(C(=O)c1cccnc1)C(C(=O)NCc1cccnc1)c1ccccc1 (configuration not stated) | – | EC90 [4]: > 12.5 µg/mL; EC99 [4]: > 12.5 µg/mL; Selectivity index [1]: 16.1; MIC [2]: 3.13 µg/mL (≈ 7.51 µM); IC50 (Vero): 50.3 µg/mL (≈ 121 µM)
5 | C=CCNC(=O)C(C(C)C)N(C(=O)c1cccnc1)C(C)c1ccccc1 (configuration not stated) | 77 | –
6 | C=CCNC(=O)C(CCCCC)N(CCCn1ccnc1)C(=O)c1cccnc1 (configuration not stated) | 82 | –
7 | C=CCNC(=O)C(CCCC)N(CCCn1ccnc1)C(=O)c1cccnc1 (configuration not stated) | 89 | –
8 | C=CCNC(=O)C(C=C)(CC)N(C(=O)c1cccnc1)C(C)c1ccccc1 (configuration not stated) | 73 | –
9 | C=CCNC(=O)C(C=C)(CC)N(CCCn1ccnc1)C(=O)c1cccnc1 (configuration not stated) | 23 | –
10 | C=CCNC(=O)C(C=C)(CC)N(C(=O)c1cccnc1)C1CCCCC1 (configuration not stated) | 84 | –
11 | C=CCNC(=O)C(C)(C)N(C(=O)c1cccnc1)C(C)c1ccccc1 (configuration not stated) | 83 | –
12 | C=CCNC(=O)C(CCCC)N(CC(C)(C)C)C(=O)c1cccnc1 (configuration not stated) | 102 | –
13 | C=CCNC(=O)C(C)(C)N(CC=C)C(=O)c1cccnc1 | 76 | –
14 | C=CCNC(=O)C(C)(C)N(CCCn1ccnc1)C(=O)c1cccnc1 | 57 | –
15 | C=CCNC(=O)C(C(C)C)N(CC(C)(C)C)C(=O)c1cccnc1 (configuration not stated) | 76 | –
16 | C=CCNC(=O)C(N(Cc1ccncc1)C(=O)c1cccnc1)C(Cl)(Cl)Cl (configuration not stated) | 49 | –
17 | C=CCNC(=O)C(CCCC)N(C(=O)c1cccnc1)C1CCCCC1 (configuration not stated) | 100 | –
18 | C=CCNC(=O)C(C(C)C)N(CCCn1ccnc1)C(=O)c1cccnc1 (configuration not stated) | 43 | –
19 | C=CCNC(=O)C(N(CC(C)(C)C)C(=O)c1cccnc1)C(Cl)(Cl)Cl (configuration not stated) | 74 | –
20 | C=CCNC(=O)C(N(CCCn1ccnc1)C(=O)c1cccnc1)C(F)(F)F (configuration not stated) | 71 | –
21 | C=CCNC(=O)C1(N(CCCN2CCOCC2)C(=O)c2cccnc2)CCCCC1 | 49 | –

Row | Compound | inhibition of growth at 12.5 µg/mL [3] [%] | further results
22 | C=CCNC(=O)C1(N(C(=O)c2cccnc2)C2CCCCC2)CCCc2cc(OC)ccc21 (configuration not stated) | 72 | –
23 | C=CCNC(=O)C(C(C)C)N(Cc1ccncc1)C(=O)c1cccnc1 (configuration not stated) | 50 | –
24 | C=CCNC(=O)C(C(C)C)N(CCCN1CCOCC1)C(=O)c1cccnc1 (configuration not stated) | 33 | –
25 | C=CCNC(=O)C(C)(C(C)C)N(CCCn1ccnc1)C(=O)c1cccnc1 (configuration not stated) | 54 | –
26 | C=CCNC(=O)C(CCCCC)N(CC=C)C(=O)c1cccnc1 (configuration not stated) | 11 | –
27 | C=CCNC(=O)C1(N(C(=O)c2cccnc2)C2CC2)CCCCC1 | 71 | –
28 | C=CCNC(=O)C(C)(C)N(CC(C)(C)C)C(=O)c1cccnc1 | 71 | –
29 | C=CCNC(=O)C1(N(Cc2ccncc2)C(=O)c2cccnc2)CCN(Cc2ccccc2)CC1 | 64 | –
30 | C=CCNC(=O)C1(N(CCCN2CCOCC2)C(=O)c2cccnc2)CCCc2cc(OC)ccc21 (configuration not stated) | 64 | –
31 | C=CCNC(=O)C(N(CCCn1ccnc1)C(=O)c1cccnc1)C(Cl)(Cl)Cl (configuration not stated) | 61 | –
32 | C=CCNC(=O)C(N(CCCN1CCOCC1)C(=O)c1cccnc1)C(Cl)(Cl)Cl (configuration not stated) | 78 | –
33 | C=CCNC(=O)C(C)(C(C)C)N(C(=O)c1cccnc1)C1CC1 (configuration not stated) | 67 | –
34 | C=CCNC(=O)C1(OC(=O)c2cccnc2)CCN(Cc2ccccc2)CC1 | – | Selectivity index [1]: >10; MIC [2]: 6.25 µg/mL (≈ 16.5 µM); IC50 (Vero): > 62.5 µg/mL
35 | C=CCNC(=O)C(C=C)(CC)N(Cc1ccncc1)C(=O)c1cccnc1 (configuration not stated) | 23 | –
36 | C=CCNC(=O)C(C)(C(C)C)N(Cc1ccncc1)C(=O)c1cccnc1 (configuration not stated) | 52 | –
37 | C=CCNC(=O)C(C)(c1ccccc1)N(C(=O)c1cccnc1)C1CC1 (configuration not stated) | 72 | –
38 | C=CCNC(=O)C(C=C)(CC)N(C(=O)c1cccnc1)C1CC1 (configuration not stated) | 50 | –
39 | C=CCNC(=O)C(CCCC)N(CC=C)C(=O)c1cccnc1.Cl (configuration not stated) | – | Selectivity index [1]: 9.9; MIC [2]: 3.13 µg/mL; IC50 (Vero): 31.1 µg/mL
40 | C=CCNC(=O)C(CCCC)N(Cc1ccncc1)C(=O)c1cccnc1 (configuration not stated) | 96 | –
41 | C=CCNC(=O)C(C)(c1ccccc1)N(CCCN1CCOCC1)C(=O)c1cccnc1 (configuration not stated) | 72 | –
42 | C=CCNC(=O)C1(N(C(=O)c2cccnc2)C2CC2)CCCc2cc(OC)ccc21 (configuration not stated) | 69 | –

Row | Compound | inhibition of growth at 12.5 µg/mL [3] [%] | further results
43 | C=CCNC(=O)C(C)(C)N(C(=O)c1cccnc1)C1CCCCC1 | 92 | –
44 | C=CCNC(=O)C1(N(C(=O)c2cccnc2)C(C)c2ccccc2)CCCc2cc(OC)ccc21 (configuration not stated) | 82 | –
45 | C=CCNC(=O)C1(N(C(=O)c2cccnc2)C(C)c2ccccc2)CCN(Cc2ccccc2)CC1 (configuration not stated) | 54 | –
46 | C=CCNC(=O)C(C(C)C)N(C(=O)c1cccnc1)C1CCCCC1 (configuration not stated) | 62 | –
47 | C=CCNC(=O)C1(N(Cc2ccncc2)C(=O)c2cccnc2)CCCCC1 | 87 | –
48 | C=CCNC(=O)C1(N(CC=C)C(=O)c2cccnc2)CCCc2cc(OC)ccc21 (configuration not stated) | 80 | –
49 | C=CCNC(=O)C1(N(CC(C)(C)C)C(=O)c2cccnc2)CCCc2cc(OC)ccc21 (configuration not stated) | 72 | –
50 | C=CCNC(=O)C(C)(C(C)C)N(CC=C)C(=O)c1cccnc1 (configuration not stated) | 69 | –
51 | C=CCNC(=O)C(CCCCC)N(C(=O)c1cccnc1)C1CC1 (configuration not stated) | 90 | –
52 | C=CCNC(=O)C1(N(CC(C)(C)C)C(=O)c2cccnc2)CCCCC1 | 99 | –
53 | C=CCNC(=O)C(CCCCC)N(C(=O)c1cccnc1)C1CCCCC1 (configuration not stated) | 100 | –
54 | C=CCNC(=O)C(N(CC=C)C(=O)c1cccnc1)C(Cl)(Cl)Cl (configuration not stated) | 6 | –
55 | C=CCNC(=O)C(CCCCC)N(Cc1ccncc1)C(=O)c1cccnc1 (configuration not stated) | 89 | –
56 | C=CCNC(=O)C(N(C(=O)c1cccnc1)C1CCCCC1)C(Cl)(Cl)Cl (configuration not stated) | 74 | –
57 | C=CCNC(=O)C(CCCC)N(CC=C)C(=O)c1cccnc1 (configuration not stated) | 100 | –
58 | C=CCNC(=O)C(N(C(=O)c1cccnc1)C(C)c1ccccc1)C(Cl)(Cl)Cl (configuration not stated) | 82 | –
59 | C=CCNC(=O)C(C(C)C)N(CC=C)C(=O)c1cccnc1 (configuration not stated) | 6 | –
60 | C=CCNC(=O)C1(N(CC=C)C(=O)c2cccnc2)CCCCC1 | 80 | –
61 | C=CCNC(=O)C(CCCC)N(CCCN1CCOCC1)C(=O)c1cccnc1 (configuration not stated) | 69 | –
62 | C=CCNC(=O)C(C=C)(CC)N(CC=C)C(=O)c1cccnc1 (configuration not stated) | 39 | –
